# According to patent US10835505B2, “Oral pharmaceutical formulation for weight loss, diabetes and related disorders” (priority 2018, dated 2020):
# Structures can show the parent of a compound that is named as a salt.
# What was measured:
# [1] = tested on: TAS2R subtypes; conditions: cited from earlier work
# [2] = in vivo; cited from earlier work
# [3] = judged, times more bitter than denatonium benzoate; cited from earlier work
# [4] = healthy volunteers, 1 μmol/kg DB; cited from earlier work
# [5] = C57BL/6 DIO mice, 60 μmol/kg DB (26.8 mg/kg) once daily, 28-day period, vs vehicle; cited from earlier work
# [6] = acute food intake inhibition study, oral gavage, Sprague Dawley rats; format: in vivo
# Source text: In a short-term food intake inhibition study, in Sprague Dawley rats the doses of DB administered were 7.5, 15, 30, and 60 μmol/kg. The corresponding human equivalent doses (HED) are be 1.2, 2.4, 4.9, 9.7 μmol/kg, respectively. In a longer-term food intake inhibition study in C57BL/6NTac mice the dose of DB used was 60 μmol/kg. The corresponding HED was 4.9 μmol/kg. […] Therefore, the disclosed formulation provides a dose of DB from about 500 nmol/kg to about […], which corresponds to from about 10 mg to about 200 mg for a human adult.
# This example provides the results of an oral dose rat gavage study, measuring food and water intake following administration of a disclosed formulation by gavage. We conducted an acute food intake inhibition study of DB in Sprague Dawley rats.
# For a longer term study, in view of the foregoing acute study findings, the effect of a combination of components was investigated. To ensure the adequate effect of the DB combination, 60 μmol/kg (26.8 mg/kg) once daily for DB in the first two weeks of the study was used, and then switched to twice daily in the last two weeks of the study.
# [7] = normal C57BL/6 mice, oral DB only at 60 μmol/kg (26.8 mg/kg); cited from earlier work
structure (smiles),measurement,setting,value
"O=C(/C=C/c1ccc(O)c(O)c1)O[C@@H]1C[C@]2(O)C[C@@H](OC2=O)[C@@H]1O [3-CQL, (1R,3R,4R,5R)-1,4-Dihydroxy-7-oxo-6-oxabicyclo[3.2.1]oct-3-yl (2E)-3-(3,4-dihydroxyphenyl)acrylate]",number of TAS2R subtypes activated,[1],eight
"C=C[C@H]1C[N@]2CC[C@H]1C[C@H]2[C@H](O)c1ccnc2ccc(OC)cc12 [Quinine, (R)-[(2S,4S,5R)-5-ethenyl-1-azabicyclo[2.2.2]octan-2-yl]-(6-methoxyquinolin-4-yl)methanol, reference compound]",number of TAS2R subtypes activated,[1],nine
"CN1CCc2cccc3c2[C@H]1Cc1ccc(O)c(O)c1-3 [Apomorphine, (6aR)-5,6,6a,7-Tetrahydro-6-methyl-4H-dibenzo(de,g)chinolin-10,11-diol hydrochlorid]",oral availability,[2],~4%
"CC[N+](CC)(CC(=O)Nc1c(C)cccc1C)Cc1ccccc1 [denatonium saccharide, benzyl-[2-(2,6-dimethylanilino)-2-oxoethyl]-diethylazanium; 1,1-dioxo-1,2-benzothiazol-3-olate]",bitterness relative to denatonium benzoate,[3],5 times
"CC[N+](CC)(CC(=O)Nc1c(C)cccc1C)Cc1ccccc1.O=C([O-])c1ccccc1 [DB, benzyl-[2-(2,6-dimethylanilino)-2-oxoethyl]-diethylazanium benzoate]",number of TAS2R subtypes activated,[1],eight
same,nutrient volume tolerance,[4],decreased nutrient volume tolerance
same,satiation,[4],increased satiation
same,body weight,[5],induced a decrease in body weight
same,food intake,"[6]; Sprague Dawley rats, various doses of DB by gavage, within the first 6 h after administration",significantly inhibited food intake
same,half-life,"[6]; rat, in vivo, oral, inferred from duration of food intake inhibition in Sprague Dawley rats",6 h
same,gastric emptying rate,[7],significantly inhibited gastric emptying rate
